Experimental data published in patent US7291603B2, “Nucleoside compounds and their use for treating cancer and diseases associated with somatic mutations” (PTC Therapeutics, Inc., priority 2002, dated 2007).

The compounds below were run on luciferase reporter construct containing a UGA premature termination codon stably transfected in 293T Human Embryonic Kidney cells (assay: cell-based luciferase reporter assay (nonsense suppression)). Conditions: UGA premature termination codon luciferase reporter in 293T cells; gentamicin internal standard; qualitative potency/efficacy of protein synthesis.
Design: key: Compounds which were found to have either or both very high potency and very high efficacy of protein synthesis are classified as “***”; Compounds which were found to have significant potency and/or efficacy of protein synthesis were classified as “**”; compounds which were found to have potency and/or efficacy of protein synthesis were classified as “*”
Experimental: Activity measurements in Table 1 were performed in a cell-based luciferase reporter assay (as described in Section 4.2) comprising a luciferase reporter construct containing a UGA premature termination codon that was stably transfected in 293T Human Embryonic Kidney cells. Gentamicin, a small molecule known to allow readthrough of premature termination codons, was used as an internal standard. Activity measurements are based on the qualitative ratio between the minimum concentration of compound required to produce a given protein in a cell versus the amount of protein produced by the cell at that concentration.
The test compounds identified in the nonsense suppression assay (for convenience referred to herein as a compound of the invention) can be tested for biological activity using host cells containing or engineered to contain the target RNA element coupled to a functional readout system. For example, the lead compound can be tested in a host cell engineered to contain the RNA with the premature translation termination codon controlling the expression of a reporter gene. In this example, the lead compounds are assayed in the presence or absence of the RNA with the premature translation termination codon. Compounds that modulate premature translation termination and/or nonsense-mediated mRNA decay in vivo will result in increased expression of the full-length gene, i.e., past the premature termination codon. Alternatively, a phenotypic or physiological readout can be used to assess activity of the target RNA with the premature translation termination codon in the presence and absence of the lead compound. Both the in vitro and in vivo nonsense suppression assays used herein and as described in International Patent Publication WO 01/44516, which is incorporated by reference herein in its entirety, can be used to identify lead compounds and can also be used to determine an EC50 for the lead compounds.
A stable cell line harboring the UGA nonsense-containing luciferase gene is treated with a test compound. Cells are grown in standard medium supplemented with 1% penicillin-streptomycin (P/S) and 10% fetal bovine serum (FBS) to 70% confluency and split 1:1 the day before treatment. The next day, cells are trypsinized and 40,000 cells are added to each well of a 96-well tissue culture dish. Serial dilutions of each compound are prepared to generate a six-point dose response curve spanning 2 logs (30 μM to 0.3 μM). The final concentration of the DMSO solvent remains constant at 1% in each well. Cells treated with 1% DMSO serve as the background standard, and cells treated with gentamicin serve as a positive control.
`Nc1ncnc(NC2O[C@H](CO)[C@@H](O)[C@H]2O)c1[N+](=O)[O-]` (stereo in doubt) [Compound 22, 6-amino-5-nitro-4-(α-D-ribofuranosylamino)-pyrimidine] was tested, and the Activity was “***”. `Nc1ncnc(N[C@@H]2O[C@H](COC(=O)c3ccccc3)C(OC(=O)c3ccccc3)C2OC(=O)c2ccccc2)c1[N+](=O)[O-]` (stereo in doubt) [Compound 24, 6-Amino-5-nitro-4-[(2,3,5-tri-O-benzoyl-β-D-ribofuranosyl)amino]pyrimidine] was tested, and the Activity was “**”. With `CNc1ncnc(N[C@@H]2O[C@H](CO)[C@@H](O)[C@H]2O)c1[N+](=O)[O-]` [Compound 2, 6-(N-methylamino)-5-nitro-4-(β-D-ribo-furanosylamino)pyrimidine] the Activity was “**”. For `Nc1ncnc(N[C@@H]2O[C@H](CO)[C@@H](O)[C@H]2O)c1N` [Compound 3, 5,6-Diamino-4-(β-D-ribofuranosyl-amino)pyrimidine], the Activity was “*”. With `O=[N+]([O-])c1cccnc1N[C@@H]1O[C@H](CO)[C@@H](O)[C@H]1O` [Compound 4, 3-Nitro-2-(β-D-ribofuranosyl-amino)pyridine] the Activity was “***”. For `O=[N+]([O-])c1ccc(N[C@@H]2O[C@H](CO)[C@@H](O)[C@H]2O)nc1` [Compound 5, 5-Nitro-2-(β-D-ribofuranosyl-amino)pyridine], the Activity was “*”. In the case of `Nc1ncnc(N[C@@H]2C[C@H](CO)[C@@H](O)[C@H]2O)c1[N+](=O)[O-]` [Compound 6, (1R,2S,3R,5R)-3-(6-Amino-5-nitro-pyrimidin-4-ylamino)-5-hydroxymethyl-cyclopentane-1,2-diol], the Activity was 0. `Nc1ncnc(N[C@H]2C[C@@H](CO)[C@H](O)[C@@H]2O)c1[N+](=O)[O-]` [Compound 7, (1S,2R,3S,5S)-3-(6-Amino-5-nitro-pyrimidin-4-ylamino)-5-hydroxymethyl-cyclopentane-1,2-diol] showed an Activity of 0. Work on `COc1ccc([N+](=O)[O-])c(N[C@@H]2O[C@H](CO)[C@@H](O)[C@H]2O)n1` [Compound 8, 6-methoxy-3-nitro-2-(β-D-ribofuranosyl-amino)pyridine] yielded an Activity of 0. Work on `CN(C)c1ncnc(N[C@@H]2O[C@H](CO)[C@@H](O)[C@H]2O)c1[N+](=O)[O-]` [Compound 9, 6-(dimethylamino)-5-nitro-4-(β-D-ribo-furanosylamino)pyrimidine] yielded an Activity of 0. With `CSc1ncnc(N[C@@H]2O[C@H](CO)[C@@H](O)[C@H]2O)c1[N+](=O)[O-]` [Compound 10, 6-(thiomethyl)-5-nitro-4-(β-D-ribo-furanosylamino)pyrimidine] the Activity was “*”. With `Cc1cc(N[C@@H]2O[C@H](CO)[C@@H](O)[C@H]2O)ncc1[N+](=O)[O-]` [Compound 11, 5-nitro-4-methyl-2-(β-D-ribofuranosyl-amino)pyridine] the Activity was “*”. In the case of `CC1(C)O[C@@H]2[C@H](O1)[C@@H](CO)O[C@H]2Nc1ncnc(N)c1[N+](=O)[O-]` [Compound 12, 6-amino-5-nitro-4-(2,3-O-isopropylidene-β-D-ribofuranosylamino)pyrimidine], the Activity was 0. `O=[N+]([O-])c1c(NCCO)ncnc1N[C@@H]1O[C@H](CO)[C@@H](O)[C@H]1O` [Compound 13, 6-(2-hydroxy-ethylamino)-5-nitro-4-(β-D-ribo-furanosylamino)pyrimidine] showed an Activity of 0. For `CCNc1ncnc(N[C@@H]2O[C@H](CO)[C@@H](O)[C@H]2O)c1[N+](=O)[O-]` [Compound 14, 6-(ethylamino)-5-nitro-4-(β-D-ribo-furanosylamino)pyrimidine], the Activity was 0. `COc1ccc(CNc2ncnc(N[C@@H]3O[C@H](CO)[C@@H](O)[C@H]3O)c2C#N)cc1` [Compound 15, 6-(4-methoxy-benzylamino)-5-cyano-4-(β-D-ribo-furanosylamino)pyrimidine] was tested, and the Activity was 0. `N#Cc1cccnc1N[C@@H]1O[C@H](CO)[C@@H](O)[C@H]1O` [Compound 16, 3-cyano-2-(β-D-ribofuranosyl-amino)pyridine] was tested, and the Activity was “*”. `O=[N+]([O-])c1c(O)ncnc1N[C@@H]1O[C@H](CO)[C@@H](O)[C@H]1O` [Compound 17, 6-hydroxy-5-nitro-4-(β-D-ribofuranosylamino)pyrimidine] was tested, and the Activity was “*”. Compound `Nc1ncnc(N[C@@H]2O[C@H](CO)[C@H](O)[C@H]2O)c1[N+](=O)[O-]` [Compound 18, 6-amino-5-nitro-4-(β-D-xylofuranosylamino)-pyrimidine] has an Activity of 0. In the case of `Nc1ncnc(N[C@H]2O[C@@H](CO)[C@H](O)[C@@H]2O)c1[N+](=O)[O-]` [Compound 19, 6-amino-5-nitro-4-(β-L-ribofuranosylamino)-pyrimidine], the Activity was “**”. In the case of `Nc1ncnc(N[C@@H]2O[C@H](CF)[C@@H](O)[C@H]2O)c1[N+](=O)[O-]` [Compound 20, 6-amino-5-nitro-4-(5-deoxy-5-fluoro-β-D-ribofuranosylamino)-pyrimidine], the Activity was “*”. With `[N-]=[N+]=NC[C@H]1O[C@@H](Nc2ncnc(N)c2[N+](=O)[O-])[C@H](O)[C@@H]1O` [Compound 21, 6-amino-5-nitro-4-(5-deoxy-5-azido-β-D-ribofuranosylamino)-pyrimidine] the Activity was “*”. In the case of `CC(=O)OC[C@H]1O[C@@H](Nc2ncnc(N)c2[N+](=O)[O-])[C@H](O)[C@@H]1O` [Compound 23, 6-Amino-5-nitro-4-[(5-O-acetyl-β-D-ribofuranosyl)amino]pyrimidine], the Activity was “***”. `COC(=O)c1c(N)ncnc1N[C@@H]1O[C@H](CO)[C@@H](O)[C@H]1O` [Compound 25, Methyl 6-amino-4-(β-D-ribofuranosylamino)pyrimidine-5-carboxylate] was tested, and the Activity was “*”. For `COC(=O)c1c(N)ncnc1N[C@H]1O[C@H](CO)[C@@H](O)[C@H]1O` [Compound 27, Methyl 6-amino-4-(α-D-ribofuranosylamino)pyrimidine-5-carboxylate], the Activity was “*”. `COC(=O)c1c(Cl)ncnc1N[C@H]1O[C@H](CO)[C@@H](O)[C@H]1O` [Compound 28, Methyl 6-chloro-4-(α-D-ribofuranosylamino)pyrimidine-5-carboxylate] was tested, and the Activity was 0.
